In patent US20110293744A1, “BENZOXAZOLE INHIBITORS OF POLY(ADP-RIBOSE)POLYMERASE” (ABBOTT LABORATORIES, priority 2009, published 2011):

Target: T1, Recombinant Human Poly(ADP-Ribose) Polymerase (PARP), PARP-1 (Homo sapiens, UniProt P09874)
T1 construct: purchased Trevigen; host or cells: E. coli
Test: PARP Enzyme Inhibition Assay (PARP1, SPA/FlashPlate)
Format: biochemical
Conditions: 1 nM PARP enzyme, [3H]-NAD+, 200 nM biotinylated histone H1, 200 nM slDNA
Method: Nicotinamide[2,5′,8-3H]adenine dinucleotide and strepavidin SPA beads were purchased from Amersham Biosiences. Recombinant Human Poly(ADP-Ribose) Polymerase (PARP), purified from E. coli and 6-Biotin-17-NAD^+, were purchase from Trevigen. NAD^+, histone, aminobenzamide, 3-amino benzamide and Calf Thymus DNA (dcDNA) were purchased from Sigma. Stem loop oligonucleotide containing MCAT sequence was obtained from Qiagen. The oligos were dissoloved to 1 mM in annealing buffer containing 10 mM Tris HCl pH 7.5, 1 mM EDTA, and 50 mM NaCl, incubated for 5 minutes at 95° C., and annealed at 45° C. for 45 minutes. Histone H1 (95% electrophoretically pure) was purchased from Roche. Biotinylated histone H1 was prepared by treating the protein with Sulfo-NHS-LC-Biotin from Pierce. The biotinylation reaction was conducted by slowly and intermittently adding 3 equivalents of 10 mM Sulfo-NHS-LC-Biotin to 100 μM Histone H1 in phosphate-buffered saline, pH 7.5, at 4° C. with gentle vortexing over 1 minute followed by subsequent 4° C. incubation for 1 hour. Streptavidin coated (FlashPlate Plus) microplates were purchased from Perkin Elmer.
PARP1 assay was conducted in PARP assay buffer containing 50 mM Tris pH 8.0, 1 mM DTT, 4 mM MgCl2. PARP reactions contained […] [^3H]-NAD^+ (1.6 uCi/mmol), 200 nM biotinylated histone H1, 200 nM slDNA, and 1 nM PARP enzyme. Auto reactions utilizing SPA bead-based detection were carried out in 100 μL volumes in white 96 well plates. Reactions were initiated by adding 50 μl of 2×NAD^+ substrate mixture to 50 μL of 2× enzyme mixture containing PARP and DNA. These reactions were terminated by the addition of 150 μL of 1.5 mM benzamide (˜1000-fold over its IC50). 170 μL of the stopped reaction mixtures were transferred to streptavidin Flash Plates, incubated for 1 hour, and counted using a TopCount microplate scintillation counter.

T1 sequence (P09874 whole entry): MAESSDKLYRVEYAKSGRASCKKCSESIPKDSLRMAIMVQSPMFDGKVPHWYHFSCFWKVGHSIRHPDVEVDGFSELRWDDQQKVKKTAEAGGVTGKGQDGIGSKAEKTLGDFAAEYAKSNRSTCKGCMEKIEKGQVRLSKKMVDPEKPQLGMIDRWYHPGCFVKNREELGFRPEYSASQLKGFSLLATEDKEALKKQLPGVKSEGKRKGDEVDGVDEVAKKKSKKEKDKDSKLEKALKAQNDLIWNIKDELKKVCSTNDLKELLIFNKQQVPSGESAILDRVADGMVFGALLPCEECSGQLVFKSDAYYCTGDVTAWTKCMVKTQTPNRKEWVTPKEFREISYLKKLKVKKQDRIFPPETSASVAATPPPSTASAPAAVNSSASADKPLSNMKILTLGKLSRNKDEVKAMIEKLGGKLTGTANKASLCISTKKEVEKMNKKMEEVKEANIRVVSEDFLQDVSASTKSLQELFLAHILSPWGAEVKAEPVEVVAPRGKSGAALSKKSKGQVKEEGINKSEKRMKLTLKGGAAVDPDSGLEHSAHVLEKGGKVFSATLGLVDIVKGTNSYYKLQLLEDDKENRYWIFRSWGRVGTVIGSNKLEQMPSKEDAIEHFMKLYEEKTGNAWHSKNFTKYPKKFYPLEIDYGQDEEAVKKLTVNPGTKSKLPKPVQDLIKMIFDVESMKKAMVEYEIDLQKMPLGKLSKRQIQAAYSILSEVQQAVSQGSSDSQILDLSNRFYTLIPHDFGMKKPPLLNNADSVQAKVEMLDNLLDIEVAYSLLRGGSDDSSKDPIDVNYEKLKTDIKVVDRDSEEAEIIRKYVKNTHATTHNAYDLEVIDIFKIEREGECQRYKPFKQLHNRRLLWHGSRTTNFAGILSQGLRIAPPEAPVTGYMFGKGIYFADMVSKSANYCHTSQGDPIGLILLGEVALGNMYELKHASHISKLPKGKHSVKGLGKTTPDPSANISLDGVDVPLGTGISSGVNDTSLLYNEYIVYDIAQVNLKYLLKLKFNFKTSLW

Row | SMILES | Ki [nM]
1 | NC(=O)c1cccc2oc(-c3ccccc3)nc12 [Example 12, 2-phenyl-1,3-benzoxazole-4-carboxamide] | 506
2 | NC(=O)c1cccc2oc(-c3ccc(Br)cc3)nc12 [Example 1, 2-(4-bromophenyl)-1,3-benzoxazole-4-carboxamide] | 142
3 | NC(=O)c1cccc2nc(-c3ccc(-c4ccc5c(c4)OCO5)cc3)oc12 [Example 6, 2-[4-(1,3-benzodioxol-5-yl)phenyl]-1,3-benzoxazole-7-carboxamide] | 841
4 | NC(=O)c1cccc2nc(-c3ccc(-c4ccccn4)cc3)oc12 [Example 11, 2-(4-pyridin-2-ylphenyl)-1,3-benzoxazole-7-carboxamide] | 11
5 | NC(=O)c1cccc2oc(-c3ccc(-c4cccnc4)cc3)nc12 [Example 3, 2-(4-pyridin-3-ylphenyl)-1,3-benzoxazole-4-carboxamide] | 312
6 | NC(=O)c1cccc2nc(-c3ccc(-c4ccccc4)cc3)oc12 [Example 5, 2-(1,1′-biphenyl-4-yl)-1,3-benzoxazole-7-carboxamide] | 196
7 | NC(=O)c1cccc2nc(-c3ccc(-c4cccnc4)cc3)oc12 [Example 9, 2-(4-pyridin-3-ylphenyl)-1,3-benzoxazole-7-carboxamide] | 63
8 | NC(=O)c1cccc2nc(-c3ccc(-c4cccc(N)c4)cc3)oc12 [Example 8, 2-(3′-amino-1,1′-biphenyl-4-yl)-1,3-benzoxazole-7-carboxamide] | 3250
9 | NC(=O)c1cccc2nc(-c3ccc(-c4cc[nH]n4)cc3)oc12 [Example 7, 2-[4-(1H-pyrazol-3-yl)phenyl]-1,3-benzoxazole-7-carboxamide] | 109
10 | NC(=O)c1cccc2nc(-c3ccc(-c4ccncc4)cc3)oc12 [Example 10, 2-(4-pyridin-4-ylphenyl)-1,3-benzoxazole-7-carboxamide] | 1620
11 | NC(=O)c1cccc2oc(-c3ccc(-c4ccccc4)cc3)nc12 [Example 2, 2-(1,1′-biphenyl-4-yl)-1,3-benzoxazole-4-carboxamide] | 9180
12 | NC(=O)c1cccc2nc(-c3ccc(Br)cc3)oc12 [Example 4, 2-(4-bromophenyl)-1,3-benzoxazole-7-carboxamide] | 48
